What was measured:
Format in all cases: cell-based
Parameters in all cases: unit not given here
Streptococcus sp. 80 = experiment: MIC, broth-dilution microtiter test (Table III)
Experimental: (§1) The MIC's in Table II were determined by standard agar-dilution assays. The MIC's in Table III were obtained using a conventional broth-dilution microtiter test.

[1] = test system: Pasteurella haemolytica 23C; experiment: MIC, broth-dilution microtiter test (Table III)
Experimental: as §1

[2] = test system: Pasteurella multocida 22A; experiment: MIC, broth-dilution microtiter test (Table III)
Experimental: as §1

Mycoplasma hyorhinis = experiment: MIC, broth-dilution microtiter test (Table III)
Experimental: as §1

Mycoplasma synoviae = experiment: MIC, broth-dilution microtiter test (Table III)
Experimental: as §1

[3] = test system: Pasteurella multocida 17E; experiment: MIC, broth-dilution microtiter test (Table III); conditions: bovine isolate
Experimental: as §1

[4] = test system: Pasteurella haemolytica 41D; experiment: MIC, broth-dilution microtiter test (Table III)
Experimental: as §1

[5] = test system: Pasteurella haemolytica 22C; experiment: MIC, broth-dilution microtiter test (Table III)
Experimental: as §1

Mycoplasma gallisepticum = experiment: MIC, broth-dilution microtiter test (Table III)
Experimental: as §1

[6] = test system: Pasteurella multocida 60A; experiment: MIC, broth-dilution microtiter test (Table III); conditions: avian isolate
Experimental: as §1

[7] = test system: Pasteurella multocida 40G; experiment: MIC, broth-dilution microtiter test (Table III)
Experimental: as §1

Staphylococcus aureus = experiment: MIC, broth-dilution microtiter test (Table III)
Experimental: as §1

[8] = test system: Pasteurella multocida 68C; experiment: MIC, broth-dilution microtiter test (Table III)
Experimental: as §1

[9] = test system: Streptococcus pyogenes C203; experiment: MIC, standard agar-dilution assay (Table II)
Experimental: as §1

[10] = test system: Streptococcus pneumoniae Park I; experiment: MIC, standard agar-dilution assay (Table II)
Experimental: as §1

[11] = test system: Streptococcus Group D X66; experiment: MIC, standard agar-dilution assay (Table II)
Experimental: as §1

[12] = test system: Staphylococcus epidermidis EPI2; experiment: MIC, standard agar-dilution assay (Table II)
Experimental: as §1

[13] = test system: Staphylococcus aureus S13E; experiment: MIC, standard agar-dilution assay (Table II)
Experimental: as §1

[14] = test system: Haemophilus influenzae Holt; experiment: MIC, standard agar-dilution assay (Table II); conditions: ampicillin-sensitive strain
Experimental: as §1

[15] = test system: Staphylococcus aureus X1.1; experiment: MIC, standard agar-dilution assay (Table II)
Experimental: as §1

[16] = test system: Haemophilus influenzae R252; experiment: MIC, standard agar-dilution assay (Table II); conditions: Haemophilus influenzae R252, ampicillin-resistant strain
Experimental: as §1

[17] = test system: Staphylococcus aureus X400; experiment: MIC, standard agar-dilution assay (Table II); conditions: Staphylococcus aureus X400, methicillin-resistant strain
Experimental: as §1

[18] = test system: Staphylococcus aureus V41; experiment: MIC, standard agar-dilution assay (Table II); conditions: Staphylococcus aureus V41, penicillin-resistant strain
Experimental: as §1

[19] = test system: Streptococcus Group D 9960; experiment: MIC, standard agar-dilution assay (Table II)
Experimental: as §1

[20] = test system: Staphylococcus epidermidis EPI1; experiment: MIC, standard agar-dilution assay (Table II)
Experimental: as §1

SMILES	minimal inhibitory concentration (MIC) (Streptococcus sp. 80)	minimal inhibitory concentration (MIC) [1]	minimal inhibitory concentration (MIC) [2]	minimal inhibitory concentration (MIC) (Mycoplasma hyorhinis)	minimal inhibitory concentration (MIC) (Mycoplasma synoviae)	minimal inhibitory concentration (MIC) [3]	minimal inhibitory concentration (MIC) [4]	minimal inhibitory concentration (MIC) [5]	minimal inhibitory concentration (MIC) (Mycoplasma gallisepticum)	minimal inhibitory concentration (MIC) [6]	minimal inhibitory concentration (MIC) [7]	minimal inhibitory concentration (MIC) (Staphylococcus aureus)	minimal inhibitory concentration (MIC) [8]	minimal inhibitory concentration (MIC) [9]	minimal inhibitory concentration (MIC) [10]	minimal inhibitory concentration (MIC) [11]	minimal inhibitory concentration (MIC) [12]	minimal inhibitory concentration (MIC) [13]	minimal inhibitory concentration (MIC) [14]	minimal inhibitory concentration (MIC) [15]	also measured
CCC1OC(=O)CC(O)C(C)C(OC2OC(C)C(O)C(N(C)C)C2OC(=O)Cc2ccccc2)C(CC=O)CC(C)C(=O)C=CC(C)=CC1COC(=O)Cc1ccccc1 (stereo not drawn) [Compound 53, 2',23-Di-O-Phenylacetyl-OMT]	< 0.05	3.12	1.56	3.12	< 0.05	1.56	3.12	3.12	< 0.05	1.56	1.56	0.195	0.78	0.06	0.03	0.25	0.25	0.25	1	0.25	minimal inhibitory concentration (MIC) [16]: 1; minimal inhibitory concentration (MIC) [17]: 0.25; minimal inhibitory concentration (MIC) [18]: 0.25; minimal inhibitory concentration (MIC) [19]: 0.25; minimal inhibitory concentration (MIC) [20]: 0.25
CCC1OC(=O)CC(O)C(C)C(OC2OC(C)C(O)C(N(C)C)C2O)C(CC=O)CC(C)C(=O)C=CC(C)=CC1COC(=O)c1ccc2ccccc2c1 (stereo not drawn) [Compound 59]	0.39	12.5	12.5	6.25	1.56	3.12	12.5	12.5	0.39	3.12	3.12	0.78	3.12	0.5	0.125	0.5	0.5	0.5	4	0.5	minimal inhibitory concentration (MIC) [16]: 2; minimal inhibitory concentration (MIC) [17]: 0.5; minimal inhibitory concentration (MIC) [18]: 0.5; minimal inhibitory concentration (MIC) [19]: 0.5; minimal inhibitory concentration (MIC) [20]: 0.5
CCC1OC(=O)CC(O)C(C)C(OC2OC(C)C(O)C(N(C)C)C2OC(C)=O)C(CC=O)CC(C)C(=O)C=CC(C)=CC1COC(=O)c1ccc2ccccc2c1 (stereo not drawn) [Compound 58]	0.78	6.25	6.25	6.25	0.78	3.12	6.25	12.5	< 0.05	3.12	3.12	1.56	1.56	0.125	0.03	0.25	0.5	0.25	2	0.25	minimal inhibitory concentration (MIC) [16]: 1; minimal inhibitory concentration (MIC) [17]: 0.5; minimal inhibitory concentration (MIC) [18]: 0.5; minimal inhibitory concentration (MIC) [19]: 0.5; minimal inhibitory concentration (MIC) [20]: 0.25
CCC1OC(=O)CC(O)C(C)C(OC2OC(C)C(OC(=O)c3ccccc3)C(N(C)C)C2OC(=O)c2ccccc2)C(CC=O)CC(C)C(=O)C=CC(C)=CC1CO (stereo not drawn) [Compound 5, 2',4'-Di-O-benzoyl-OMT]	3.12	> 50	> 50	50	12.5	50	> 50	> 50	12.5	50	50	6.25	25	2	0.5	8	4	32	64	8	minimal inhibitory concentration (MIC) [16]: 64; minimal inhibitory concentration (MIC) [17]: 64; minimal inhibitory concentration (MIC) [18]: 32; minimal inhibitory concentration (MIC) [19]: 8; minimal inhibitory concentration (MIC) [20]: 8
CCC1OC(=O)CC(O)C(C)C(OC2OC(C)C(O)C(N(C)C)C2OC(C)=O)C(CC=O)CC(C)C(=O)C=CC(C)=CC1COC(=O)C12CC3CC(CC(C3)C1)C2 (stereo not drawn) [Compound 69]	1.56	25	12.5	3.12	1.56	12.5	25	25	0.78	12.5	12.5	6.25	12.5	1	0.5	2	1	1	8	1	minimal inhibitory concentration (MIC) [16]: 16; minimal inhibitory concentration (MIC) [17]: 1; minimal inhibitory concentration (MIC) [18]: 1; minimal inhibitory concentration (MIC) [19]: 2; minimal inhibitory concentration (MIC) [20]: 1
CCC1OC(=O)CC(O)C(C)C(OC2OC(C)C(O)C(N(C)C)C2O)C(CC=O)CC(C)C(=O)C=CC(C)=CC1COC(=O)C12CC3CC(CC(C3)C1)C2 (stereo not drawn) [Compound 70]	1.56	25	12.5	3.12	0.39	12.5	25	25	1.56	25	12.5	6.25	12.5	1	0.5	2	1	1	8	1	minimal inhibitory concentration (MIC) [16]: 16; minimal inhibitory concentration (MIC) [17]: 1; minimal inhibitory concentration (MIC) [18]: 1; minimal inhibitory concentration (MIC) [19]: 2; minimal inhibitory concentration (MIC) [20]: 1
